In ChEMBL document CHEMBL1130422, “A refined model for the somatostatin pharmacophore: conformational analysis of lanthionine-sandostatin analogs” (J Med Chem, 1997):
Where a SMILES comes first, the peptide text is derived from it. Bridges are numbered along the chain shown (N, C = ends). [ ]: non-standard residue; d: D form. d(aThr) = C[C@@H](O)[C@@H](N)C(=O)O

Molecular target: Somatostatin receptor type 2 (Mus musculus, UniProt P30875)
Assay: Compound was tested for the inhibition of mSSTR2b

Chain of Somatostatin receptor type 2 (P30875 whole entry): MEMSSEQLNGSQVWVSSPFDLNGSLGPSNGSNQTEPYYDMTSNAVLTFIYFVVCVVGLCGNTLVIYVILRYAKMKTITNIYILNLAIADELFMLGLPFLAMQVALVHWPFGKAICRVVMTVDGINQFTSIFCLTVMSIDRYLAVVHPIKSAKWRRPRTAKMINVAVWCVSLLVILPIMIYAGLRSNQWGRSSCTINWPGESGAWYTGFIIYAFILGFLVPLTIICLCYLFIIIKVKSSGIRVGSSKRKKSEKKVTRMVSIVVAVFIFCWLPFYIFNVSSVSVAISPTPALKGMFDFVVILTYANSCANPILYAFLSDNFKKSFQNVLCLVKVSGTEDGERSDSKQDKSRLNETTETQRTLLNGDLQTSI

Row | IC50 | Structure (SMILES)
1 | 0.28 nM | C[C@@H](O)[C@H](NC(=O)[C@@H]1CSSC[C@H](NC(=O)[C@H](N)Cc2ccccc2)C(=O)N[C@@H](Cc2ccccc2)C(=O)N[C@H](Cc2c[nH]c3ccccc23)C(=O)N[C@@H](CCCCN)C(=O)N[C@@H]([C@@H](C)O)C(=O)N1)C(=O)O
2 | 15.6 nM | C[C@@H](O)[C@H](NC(=O)[C@@H]1CSC[C@H](NC(=O)[C@H](N)Cc2ccccc2)C(=O)N[C@@H](Cc2ccccc2)C(=O)N[C@H](Cc2c[nH]c3ccccc23)C(=O)N[C@@H](CCCCN)C(=O)N[C@@H]([C@@H](C)O)C(=O)N1)C(N)=O

Molecular target: T1, Somatostatin receptor type 5 (Rattus norvegicus, UniProt P30938)
T1 sequence (P30938 whole entry): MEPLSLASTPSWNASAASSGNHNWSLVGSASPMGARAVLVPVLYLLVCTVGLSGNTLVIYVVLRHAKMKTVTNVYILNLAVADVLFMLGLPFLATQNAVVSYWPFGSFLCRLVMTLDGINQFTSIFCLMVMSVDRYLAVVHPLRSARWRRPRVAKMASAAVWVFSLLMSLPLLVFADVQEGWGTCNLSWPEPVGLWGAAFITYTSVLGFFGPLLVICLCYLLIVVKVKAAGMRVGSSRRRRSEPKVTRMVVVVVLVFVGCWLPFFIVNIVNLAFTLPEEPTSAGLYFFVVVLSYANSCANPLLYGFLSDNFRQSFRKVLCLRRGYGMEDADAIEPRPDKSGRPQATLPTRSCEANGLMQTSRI
Assay: Compound was tested for the inhibition of rSSTR5

Row | IC50 | Structure (SMILES)
3 | 1.04 nM | C[C@@H](O)[C@@H](NC(=O)[C@H]1CSSC[C@H](NC(=O)[C@@H](N)Cc2ccccc2)C(=O)N[C@@H](Cc2ccccc2)C(=O)N[C@H](Cc2c[nH]c3ccccc23)C(=O)N[C@@H](CCCCN)C(=O)N[C@H]([C@@H](C)O)C(=O)N1)C(=O)O
4 | 5.5 nM | C[C@@H](O)[C@H](NC(=O)[C@@H]1CSC[C@@H](NC(=O)[C@H](N)Cc2ccccc2)C(=O)N[C@H](Cc2ccccc2)C(=O)N[C@@H](Cc2c[nH]c3ccccc23)C(=O)N[C@H](CCCCN)C(=O)N[C@@H]([C@@H](C)O)C(=O)N1)C(N)=O
5 | 500 nM | C[C@@H](O)[C@@H]1NC(=O)[C@@H](CCCCN)NC(=O)[C@H](Cc2c[nH]c3ccccc23)NC(=O)[C@@H](Cc2ccccc2)NC(=O)[C@H](NC(=O)[C@H](N)Cc2ccccc2)CSC[C@@H](C(=O)O)NC1=O
6 | 10.6 nM | C[C@@H](O)[C@H]1NC(=O)[C@H](CCCCN)NC(=O)[C@@H](Cc2c[nH]c3ccccc23)NC(=O)[C@H](Cc2ccccc2)NC(=O)[C@@H](NC(=O)[C@@H](N)Cc2ccccc2)CSSC[C@H](C(=O)O)NC1=O (H-FCF[dW]K[d(aThr)][dC]-OH; disulfide 2-7)
